Laboratory results: patent US6737383B1, “Herbicidal oxadiazolidines” (priority 1999, dated 2004)

Tests used:
blackgrass = test: Test B pre/postemergence blackgrass; assay type: in vivo, Alopecurus myosuroides
Procedure, shortened: (§1)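 Response is a visual 0-to-10 score relative to untreated plants, where 0 means no effect and 10 means complete control, taken twelve to sixteen days after application. Treatments went onto soil at planting and onto foliage of 1- to 4-leaf plants, using a surfactant-containing non-phytotoxic solvent.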

corn = test: Test B pre/postemergence corn; assay type: in vivo, Zea mays
Procedure, shortened: as §1

soybean = test: Test B pre/postemergence soybean; assay type: in vivo, Glycine max
Procedure, shortened: as §1

cocklebur = test: Test B pre/postemergence cocklebur; assay type: in vivo, Xanthium strumarium
Procedure, shortened: as §1

velvetleaf = test: Test B pre/postemergence velvetleaf; assay type: in vivo, Abutilon theophrasti
Procedure, shortened: as §1

purple nutsedge = test: Test B pre/postemergence purple nutsedge; assay type: in vivo, Cyperus rotundus
Procedure, shortened: as §1

wild oat = test: Test B pre/postemergence wild oat; assay type: in vivo, Avena fatua
Procedure, shortened: as §1

rape = test: Test B pre/postemergence rape; assay type: in vivo, Brassica napus
Procedure, shortened: as §1

wheat = test: Test B pre/postemergence wheat; assay type: in vivo, Triticum aestivum
Procedure, shortened: as §1

sugar beet = test: Test B pre/postemergence sugar beet; assay type: in vivo, Beta vulgaris
Procedure, shortened: as §1

morningglory = test: Test B pre/postemergence morningglory; assay type: in vivo, Ipomoea hederacea
Procedure, shortened: as §1

pigweed = test: Test B pre/postemergence pigweed; assay type: in vivo, Amaranthus retroflexus
Procedure, shortened: as §1

giant foxtail = test: Test B pre/postemergence giant foxtail; assay type: in vivo, Setaria faberii
Procedure, shortened: as §1

surinam grass = test: Test B pre/postemergence surinam grass; assay type: in vivo, Brachiaria decumbens; conditions: Postemergence
Procedure, shortened: as §1

bedstraw = test: Test B pre/postemergence bedstraw; assay type: in vivo, Galium aparine
Procedure, shortened: as §1

crabgrass = test: Test B pre/postemergence crabgrass; assay type: in vivo, Digitaria sanguinalis
Procedure, shortened: as §1

[1] = Postemergence, Rate 62 g/ha, scale 0 to 10, 0 is no effect, 10 is complete control
[2] = Postemergence, Rate 125 g/ha, scale of 0 to 10 where 0 is no effect and 10 is complete control
[3] = Preemergence, Rate 125 g/ha, scale of 0 to 10 where 0 is no effect and 10 is complete control
[4] = Preemergence, Rate 250 g/ha, scale 0 (no effect) to 10 (complete control)
[5] = Rate 62 g/ha, Preemergence, scale 0 to 10
[6] = Rate 250 g/ha, Postemergence, scale 0 to 10, 0 is no effect, 10 is complete control
[7] = Rate 500 g/ha, Postemergence, scale 0 to 10, 0 is no effect, 10 is complete control
[8] = Rate 500 g/ha, Preemergence, scale 0 to 10 (0 no effect, 10 complete control)

SMILES: CC(CBr)Cn1c(=O)on(C(=O)N(c2ccc(F)cc2)C(C)C)c1=O (centres unmarked) [Compound 752]
- Plant response rating, Blackgrass (blackgrass; [1]): 0
- Blackgrass plant response rating (blackgrass; [2]): 2
- Plant response rating, Blackgrass (blackgrass; [3]): 9
- Blackgrass plant response rating (blackgrass; [4]): 9
- Blackgrass plant response rating (blackgrass; [5]): 4
- Blackgrass plant response rating (blackgrass; [6]): 6
- Blackgrass plant response rating (blackgrass; [7]): 6
- Blackgrass plant response rating (blackgrass; [8]): 10
- Plant response rating, Corn (corn; [1]): 0
- Corn plant response rating (corn; [2]): 0
- Plant response rating, Corn (corn; [3]): 0
- Corn plant response rating (corn; [4]): 0
- Corn plant response rating (corn; [5]): 0
- Corn plant response rating (corn; [6]): 0
- Corn plant response rating (corn; [7]): 0
- Corn plant response rating (corn; [8]): 0
- Plant response rating, Soybean (soybean; [1]): 4
- Plant response rating, Soybean (soybean; [3]): 0
- Soybean plant response rating (soybean; [4]): 0
- Soybean plant response rating (soybean; [5]): 0
- Soybean plant response rating (soybean; [6]): 6
- Soybean plant response rating (soybean; [7]): 6
- Soybean plant response rating (soybean; [8]): 0
- Plant response rating, Cocklebur (cocklebur; [1]): 0
- Cocklebur plant response rating (cocklebur; [2]): 3
- Plant response rating, Cocklebur (cocklebur; [3]): 0
- Cocklebur plant response rating (cocklebur; [4]): 0
- Cocklebur plant response rating (cocklebur; [5]): 0
- Cocklebur plant response rating (cocklebur; [7]): 3
- Cocklebur plant response rating (cocklebur; [8]): 0
- Plant response rating, Velvetleaf (velvetleaf; [1]): 0
- Plant response rating, Velvetleaf (velvetleaf; [3]): 0
- Velvetleaf plant response rating (velvetleaf; [4]): 0
- Velvetleaf plant response rating (velvetleaf; [5]): 0
- Velvetleaf plant response rating (velvetleaf; [6]): 2
- Velvetleaf plant response rating (velvetleaf; [7]): 2
- Velvetleaf plant response rating (velvetleaf; [8]): 2
- Plant response rating, Nutsedge (purple nutsedge; [1]): 0
- Nutsedge plant response rating (purple nutsedge; [2]): 0
- Plant response rating, Nutsedge (purple nutsedge; [3]): 0
- Nutsedge plant response rating (purple nutsedge; [5]): 0
- Nutsedge plant response rating (purple nutsedge; [6]): 0
- Nutsedge plant response rating (purple nutsedge; [7]): 0
- Nutsedge plant response rating (purple nutsedge; [8]): 0
- Plant response rating, Wild oats (wild oat; [1]): 0
- Plant response rating, Wild oats (wild oat; [3]): 0
- Wild oats plant response rating (wild oat; [4]): 7
- Wild oats plant response rating (wild oat; [5]): 0
- Wild oats plant response rating (wild oat; [6]): 0
- Wild oats plant response rating (wild oat; [7]): 0
- Wild oats plant response rating (wild oat; [8]): 8
- Plant response rating, Rape (rape; [1]): 2
- Rape plant response rating (rape; [2]): 2
- Plant response rating, Rape (rape; [3]): 3
- Rape plant response rating (rape; [4]): 5
- Rape plant response rating (rape; [5]): 0
- Rape plant response rating (rape; [6]): 4
- Rape plant response rating (rape; [7]): 4
- Rape plant response rating (rape; [8]): 5
- Plant response rating, Wheat (wheat; [1]): 0
- Plant response rating, Wheat (wheat; [3]): 0
- Wheat plant response rating (wheat; [4]): 0
- Wheat plant response rating (wheat; [5]): 0
- Wheat plant response rating (wheat; [6]): 5
- Wheat plant response rating (wheat; [7]): 5
- Wheat plant response rating (wheat; [8]): 0
- Plant response rating, Sugarbeets (sugar beet; [1]): 3
- Plant response rating, Sugarbeets (sugar beet; [3]): 0
- Sugarbeets plant response rating (sugar beet; [4]): 3
- Sugarbeets plant response rating (sugar beet; [5]): 0
- Sugarbeets plant response rating (sugar beet; [6]): 3
- Sugarbeets plant response rating (sugar beet; [7]): 3
- Sugarbeets plant response rating (sugar beet; [8]): 3
- Plant response rating, Morningglory (morningglory; [1]): 2
- Morningglory plant response rating (morningglory; [2]): 2
- Plant response rating, Morningglory (morningglory; [3]): 0
- Morningglory plant response rating (morningglory; [4]): 0
- Morningglory plant response rating (morningglory; [5]): 0
- Morningglory plant response rating (morningglory; [6]): 8
- Morningglory plant response rating (morningglory; [7]): 9
- Morningglory plant response rating (morningglory; [8]): 0
- Plant response rating, Redroot pigweed (pigweed; [1]): 0
- Redroot pigweed plant response rating (pigweed; [2]): 5
- Plant response rating, Redroot pigweed (pigweed; [3]): 2
- Redroot pigweed plant response rating (pigweed; [4]): 10
- Redroot pigweed plant response rating (pigweed; [5]): 0
- Redroot pigweed plant response rating (pigweed; [6]): 5
- Redroot pigweed plant response rating (pigweed; [7]): 9
- Redroot pigweed plant response rating (pigweed; [8]): 10
- Giant foxtail plant response rating (giant foxtail; [2]): 9
- Plant response rating, Giant foxtail (giant foxtail; [3]): 10
- Giant foxtail plant response rating (giant foxtail; [4]): 10
- Giant foxtail plant response rating (giant foxtail; [5]): 10
- Giant foxtail plant response rating (giant foxtail; [6]): 9
- Giant foxtail plant response rating (giant foxtail; [7]): 9
- Giant foxtail plant response rating (giant foxtail; [8]): 10
- Plant response rating, B. signalgrass (surinam grass; Rate 62 g/ha, scale 0 to 10, 0 is no effect, 10 is complete control): 0
- B. signalgrass plant response rating (surinam grass; Rate 125 g/ha, scale of 0 to 10 where 0 is no effect and 10 is complete control): 0
- B. signalgrass plant response rating (surinam grass; Rate 250 g/ha, scale 0 to 10, 0 is no effect, 10 is complete control): 2
- B. signalgrass plant response rating (surinam grass; Rate 500 g/ha, scale 0 to 10, 0 is no effect, 10 is complete control): 6
- Plant response rating, Bedstraw (bedstraw; [1]): 0
- Bedstraw plant response rating (bedstraw; [2]): 0
- Plant response rating, Bedstraw (bedstraw; [3]): 10
- Bedstraw plant response rating (bedstraw; [4]): 10
- Bedstraw plant response rating (bedstraw; [5]): 0
- Bedstraw plant response rating (bedstraw; [6]): 2
- Bedstraw plant response rating (bedstraw; [7]): 2
- Bedstraw plant response rating (bedstraw; [8]): 10
- Plant response rating, Crabgrass (crabgrass; [1]): 3
- Crabgrass plant response rating (crabgrass; [2]): 3
- Plant response rating, Crabgrass (crabgrass; [3]): 9
- Crabgrass plant response rating (crabgrass; [4]): 10
- Crabgrass plant response rating (crabgrass; [5]): 9
- Crabgrass plant response rating (crabgrass; [6]): 8
- Crabgrass plant response rating (crabgrass; [7]): 10
- Crabgrass plant response rating (crabgrass; [8]): 10
